Test results: ChEMBL document CHEMBL4138114, “Pharmacophore guided discovery of small-molecule interleukin 15 inhibitors” (Eur J Med Chem, 2017)
Activity calls are given as the source filed them. The calls are words filed in the database; no cut-off is given here.

Experiments:
Assay type in all cases: cell-based
[1] = molecular target: T1, IL15-IL15 receptor (Homo sapiens) (UniProt P40933+Q13261); test: Inhibition of IL-15 (unknown origin)/IL-15Ralpha interaction in human PBMC cells assessed as reduction of TNF-alpha synthesis preincubated for 30 mins followed by IL-15 addition measured after 48 hrs by ELISA
T1 sequence (P40933 49-162 limits assumed): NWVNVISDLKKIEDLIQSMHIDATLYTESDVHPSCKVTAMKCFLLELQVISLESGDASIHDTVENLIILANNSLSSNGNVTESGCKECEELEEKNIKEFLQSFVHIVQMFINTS
T1 sequence (Q13261 31-267 partner limits assumed): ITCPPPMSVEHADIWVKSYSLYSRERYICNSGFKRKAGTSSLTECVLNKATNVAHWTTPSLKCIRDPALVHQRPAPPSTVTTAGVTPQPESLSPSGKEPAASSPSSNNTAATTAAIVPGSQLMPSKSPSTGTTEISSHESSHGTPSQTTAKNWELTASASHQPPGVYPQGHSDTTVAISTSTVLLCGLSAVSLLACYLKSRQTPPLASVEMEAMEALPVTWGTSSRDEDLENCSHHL

PBMC = test: Cytotoxicity against human PBMC cells up to 200 uM after 48 hrs by CellTiter 96 AQueous one solution cell proliferation assay
[2] = molecular target: T1, IL15-IL15 receptor (Homo sapiens); test: Inhibition of IL-15 (unknown origin)/IL-15Ralpha interaction in human PBMC cells assessed as reduction of IL-17 synthesis preincubated for 30 mins followed by IL-15 addition measured after 48 hrs by ELISA

In the case of `O=C(O)c1ccc(CNC(=O)C2CCCCC2C(=O)O)cc1` (configuration not stated), the “TNF-alpha synthesis inhibition (active/not active)” value [1] was “Active”, the Activity (PBMC) was “Non-Toxic” and the inhibition [2] was “Active”.

In the case of `NCCC(=O)NCCc1c[nH]cn1` [CARCININE], the “TNF-alpha synthesis inhibition (active/not active)” value [1] was “Active”, the Activity (PBMC) was “Non-Toxic” and the inhibition [2] was “Active”.

For `NC(N)=NC(=O)CNCC(=O)N=C(N)N`, the “TNF-alpha synthesis inhibition (active/not active)” value [1] was “Active”, the Activity (PBMC) was “Non-Toxic” and the inhibition [2] was “Active”.

With `O=C(O)c1ccc(CNC(=O)C2C3CCC(C3)C2C(=O)O)cc1` (configuration not stated) the “TNF-alpha synthesis inhibition (active/not active)” value [1] was “Active”, the Activity (PBMC) was “Non-Toxic” and the inhibition [2] was “Active”.

In the case of `COc1ccc(S(=O)(=O)Nc2cccc(C(=O)O)c2)cc1C(=O)O`, the “TNF-alpha synthesis inhibition (active/not active)” value [1] was “inactive”, the Activity (PBMC) was “Non-Toxic” and the inhibition [2] was “inactive”.

For `COc1ccc(-n2nnnc2S(=O)(=O)Cc2ccc(C(=O)O)cc2)cc1`, the “TNF-alpha synthesis inhibition (active/not active)” value [1] was “inactive”, the Activity (PBMC) was “Non-Toxic” and the inhibition [2] was “inactive”.

In the case of `CCC(=O)Nc1ccc(Cc2ccc(NC(=O)CC)c(C(=O)O)c2)cc1C(=O)O`, the “TNF-alpha synthesis inhibition (active/not active)” value [1] was “inactive”, the Activity (PBMC) was “Non-Toxic” and the inhibition [2] was “inactive”.

In the case of `C/C(C/C(C)=N/N=C(N)N)=N\N=C(N)N`, the “TNF-alpha synthesis inhibition (active/not active)” value [1] was “Active”, the Activity (PBMC) was “Non-Toxic” and the inhibition [2] was “Active”.

For `Cc1nnc(SCC2=C(C(=O)O)N3C(=O)[C@@H](NC(=O)Cn4cnnn4)[C@H]3SC2)s1` [CEFAZOLIN], the “TNF-alpha synthesis inhibition (active/not active)” value [1] was “Active”, the Activity (PBMC) was “Non-Toxic” and the inhibition [2] was “Active”.

`O=C(O)CCC(=O)Nc1cc(NC(=O)CCC(=O)O)cc(C(=O)O)c1` was tested, and the “TNF-alpha synthesis inhibition (active/not active)” value [1] was “Active”, the Activity (PBMC) was “Non-Toxic” and the inhibition [2] was “Active”.

With `NCCC(=O)N[C@@H](Cc1c[nH]cn1)C(=O)O` the “TNF-alpha synthesis inhibition (active/not active)” value [1] was “inactive” and the inhibition [2] was “inactive”.

For `O=C(O)c1ccc(CSc2nnnn2C2CCCCC2)cc1`, the “TNF-alpha synthesis inhibition (active/not active)” value [1] was “inactive”, the Activity (PBMC) was “Non-Toxic” and the inhibition [2] was “inactive”.

`O=C(O)CCC(=O)NCc1ccc(C(=O)O)cc1` was tested, and the “TNF-alpha synthesis inhibition (active/not active)” value [1] was “inactive”, the Activity (PBMC) was “Non-Toxic” and the inhibition [2] was “inactive”.

In the case of `O=C(O)c1ccc(CSc2nnnn2-c2ccc(F)cc2)cc1`, the “TNF-alpha synthesis inhibition (active/not active)” value [1] was “Active”, the Activity (PBMC) was “Non-Toxic” and the inhibition [2] was “Active”.

With `NC(CCCCCCC(N)C(=O)O)C(=O)O` (configuration not stated) the “TNF-alpha synthesis inhibition (active/not active)” value [1] was “Active”, the Activity (PBMC) was “Non-Toxic” and the inhibition [2] was “Active”.

For `O=C(O)Cc1ccc(NC(=O)C2CC=CCC2C(=O)O)cc1` (configuration not stated), the “TNF-alpha synthesis inhibition (active/not active)” value [1] was “inactive”, the Activity (PBMC) was “Non-Toxic” and the inhibition [2] was “inactive”.

`COC(=O)c1ccc(O)c(C)c1O` was tested, and the “TNF-alpha synthesis inhibition (active/not active)” value [1] was “Active”, the Activity (PBMC) was “Non-Toxic” and the inhibition [2] was “Active”.

For `NCCC(=O)N[C@@H](Cc1cnc[nH]1)C(=O)O` [CARNOSINE], the Activity (PBMC) was “Non-Toxic”.

For `COC(=O)CCC(=O)NCc1ccc(C(=O)OC)cc1`, the “TNF-alpha synthesis inhibition (active/not active)” value [1] was “Active”, the Activity (PBMC) was “Non-Toxic” and the inhibition [2] was “Active”.

`O=C(O)c1ccc(CNC(=O)C2CC=CCC2C(=O)O)cc1` (configuration not stated) was tested, and the “TNF-alpha synthesis inhibition (active/not active)” value [1] was “inactive”, the Activity (PBMC) was “Non-Toxic” and the inhibition [2] was “inactive”.
